Consider two molecules from patent publication US12037302B1, “Compound for treatment of bacterial infections of different etiology in humans” (priority 2021, dated 2024).

Data set [1] relates to Salmonella typhimurium DT104. Nature of the data set: Comparative in vitro zone diameter test on Müler-Hinton-Agar. Type of data set: cell-based. The settings on record: amount used: novel compound 0.05 mL, Cephalosporin 0.1 mL, Ampicillin 0.2 mL. The source says: (§1) Here are the findings of the comparative examination of selected pathogens against the novel compound and the antibiotics Cephalosporin and Ampicillin:
(§2) Evaluation of the results by zone diameter: • 0 mm to 4 mm: resistant: R • 5 mm to 9 mm: moderately sensitive: MS • 10 mm to 15 mm: sensitive: S • 16 mm to 20 mm: very sensitive: VS • 21 mm and more: extremely sensitive: ES

The test system of a further data set is Staphylococcus aureus. Described as above. The settings on record: amount used: novel compound 0.05 mL, Cephalosporin 0.1 mL, Ampicillin 0.2 mL. Format: cell-based.
Description: as §1, §2

In another data set the test system is Listeria monocytogenes. The data set is described as above. The conditions noted are these: amount used: novel compound 0.05 mL, Cephalosporin 0.1 mL, Ampicillin 0.2 mL. Format: cell-based.
Description: as §1, §2

For a further data set, the system named is Streptococcus pyogenes. The data set is described as above. Format: cell-based. The settings on record: amount used: novel compound 0.05 mL, Cephalosporin 0.1 mL, Ampicillin 0.2 mL.
Description: as §1, §2

For another data set, the system named is Escherichia coli O157:H7. The data set is described as above. Format: cell-based. The conditions noted are these: amount used: novel compound 0.05 mL, Cephalosporin 0.1 mL, Ampicillin 0.2 mL.
Description: as §1, §2

The subject of another data set is Streptococcus uberis. Described as above. Format: cell-based. The settings on record: amount used: novel compound 0.05 mL, Cephalosporin 0.1 mL, Ampicillin 0.2 mL.
Description: as §1, §2

In another data set the test system is Streptococcus pneumoniae. The description is as above. Type of data set: cell-based. The settings on record: amount used: novel compound 0.05 mL, Cephalosporin 0.1 mL, Ampicillin 0.2 mL.
Description: as §1, §2

Data set [2] deals with mice. Nature of the data set: Acute toxicity LD50, peroral application (p.o.), mice. Format: in vivo. The text has this:
(§3) Both mice and rats were specially selected for the testing of the toxicity of the compounds, medicine, and chemicals. […] Groups of one hundred (100) lab mice and rats of both genders were placed into glass compartments. They were regularly consuming food manufactured for these lab animals. Water consumption was always available.
(§4) The peroral application (p.o.) acute toxicity LD50 testing was done using the standard procedure: application p.o. with the special lab pipette easy to administer liquid product: orally to the lab animals.
Breathing and cardiac functions were regular, function of thorax was regular and without visual changes. Discomfort symptoms were noticed after the applications, disappeared after 1-3 min, diverse from mouse to mouse.

Data set [3] concerns rats. Nature of the data set: Acute toxicity LD50, intraperitoneal (i.p.) injection, rats. Format: in vivo.
Description: as §3
(§5) Intraperitoneal testing of the compound LD50 i.e. by pharmaceutical lab needle and syringe, designed for the easy application to the lab animals intraperitoneally.
Breathing and cardiac functions were regular, function of thorax was regular and without visual changes. Discomfort symptoms noticed after the applications, disappeared after 5-6 min, diverse from rat to rat.

The test system of data set [4] is rats. Briefly: Acute toxicity LD50, peroral application (p.o.), rats. Type of data set: in vivo.
Description: as §3, §4
Breathing and cardiac functions were regular, function of thorax was regular and without visual changes. Discomfort symptoms noticed after the applications, disappeared after 1-3 min, diverse from rat to rat.

For data set [5], the system named is mice. Nature of the data set: Acute toxicity LD50, intraperitoneal (i.p.) injection, mice. Format: in vivo.
Description: as §3, §5
Breathing and cardiac functions were regular, function of thorax was regular and without visual changes. Discomfort symptoms noticed after the applications, disappeared after 3-5 min, diverse from mouse to mouse.

`CC1(C)S[C@@H]2[C@H](NC(=O)[C@H](N)c3ccccc3)C(=O)N2[C@H]1C(=O)O` [Ampicilin, Ampicillin]: the “R (evaluation by zone diameter)” value is listed as “MS (5 mm to 9 mm: moderately sensitive: MS)” in data set [1]; “R (0 mm to 4 mm: resistant: R)” in the data set with Staphylococcus aureus; “MS (5 mm to 9 mm: moderately sensitive: MS)” with Listeria monocytogenes; “R (0 mm to 4 mm: resistant: R)” in the data set with Streptococcus pyogenes; “MS (5 mm to 9 mm: moderately sensitive: MS)” in the data set with Escherichia coli O157:H7; “R (0 mm to 4 mm: resistant: R)” in the data set with Streptococcus uberis. The “R (evaluation by zone diameter)” value in the data set with Streptococcus pneumoniae is on record as “R (0 mm to 4 mm: resistant: R)”. In addition, the zone diameter in data set [1] was found to be 6 mm; with Staphylococcus aureus, 0 mm; in the data set on Listeria monocytogenes it was 7 mm; in the data set on Streptococcus pyogenes, 3 mm; with Escherichia coli O157:H7, 7 mm; in the data set with Streptococcus uberis, 0 mm. This molecule also displayed a zone diameter in the data set with Streptococcus pneumoniae of 0 mm.

Turning to `CCN(CC)CC(=O)Nc1c(C)cccc1C.Cc1cc([N+](=O)[O-])c(C(C)C)c([N+](=O)[O-])c1O` [Novel Compound, 2,4-dinitro-5-isopropyl-2-methylphenoxy-N-(2,6-dimethylphenylium)-N2,N2-diethylglycinamide], the toxicity conclusion entry in the data set on mice [2] (orally (p.o.), applied doses) is on record as “low toxic”; with rats [3] (i.p., applied doses) it was “low toxic”; in the data set on rats [4] (orally (p.o.), applied doses), “low toxic”; in the data set with mice [5] (i.p., applied doses), “low toxic”. Besides, the figures for the “oral LD50” value in the data set with mice [2] (p.o.) and with rats [4] (p.o.) were “over 2,000 μL/kg” and “over 2,250 μL/kg”, respectively. Also, the “animals that changed their behavior and demonstrated light discomfort, running, anxiety” value in the data set with mice [2] (p.o., 2,000 μL/kg) is listed as 23 mice out of one hundred (100); with rats [4] (p.o., 2,250 μL/kg) it was 37 rats out of one hundred (100). In addition, the “time after which discomfort symptoms disappeared” value in the data set on mice [2] (p.o., 2,000 μL/kg) lay in the range of 1 to 3 min; in the data set with rats [3] (i.p., 1,750 μL/kg) it was 5 to 6 min; in the data set on rats [4] (p.o., 2,250 μL/kg) it was 1 to 3 min; in the data set on mice [5] (i.p., 1,550 μL/kg), 3 to 5 min. Further, the “lethality during the test” value is reported as “No mouse has ended lethally” in the data set with mice [2] (p.o., doses up to 2,000 μL/kg); “No rat has passed lethally” in the data set on rats [3] (i.p., doses up to 1,750 μL/kg); “No rat has ended lethally” with rats [4] (p.o., doses up to 2,250 μL/kg); “No mouse has ended lethally” with mice [5] (i.p., doses up to 1,550 μL/kg). Moreover, the “Intraperitoneal LD50” value in the data set with rats [3] (i.p.) is given as “over 1,750 ML/kg”; in the data set with mice [5] (i.p.), “over 1,550 μL/kg”. The “animals that changed their behavior and demonstrated discomfort, running, anxiety” value with rats [3] (i.p., 1,750 μL/kg) is reported as 29 rats out of one hundred (100); in the data set on mice [5] (i.p., 1,550 μL/kg), 21 mice out of one hundred (100). Moreover, the “R (evaluation by zone diameter)” value in data set [1] is “ES (21 mm and more: extremely sensitive: ES)”; in the data set on Staphylococcus aureus, “ES (21 mm and more: extremely sensitive: ES)”; in the data set on Listeria monocytogenes, “ES (21 mm and more: extremely sensitive: ES)”; in the data set on Streptococcus pyogenes it was “ES (21 mm and more: extremely sensitive: ES)”; in the data set with Escherichia coli O157:H7 it was “ES (21 mm and more: extremely sensitive: ES)”; in the data set with Streptococcus uberis, “ES (21 mm and more: extremely sensitive: ES)”. Also, the “R (evaluation by zone diameter)” value in the data set with Streptococcus pneumoniae was “ES (21 mm and more: extremely sensitive: ES)”. The zone diameter stood at 25 mm in data set [1]; 27 mm with Staphylococcus aureus; 33 mm in the data set with Listeria monocytogenes; 29 mm in the data set with Streptococcus pyogenes; 24 mm in the data set with Escherichia coli O157:H7; 32 mm in the data set on Streptococcus uberis. The zone diameter in the data set with Streptococcus pneumoniae is given as 31 mm.
